Data from patent US12378211B2, “Carbonic anhydrase inhibitors and antibiotics against multidrug resistant bacteria” (Purdue Research Foundation, priority 2018, dated 2025).
Values after ≈ are worked out from the molar mass of the structure shown.

Key:
[1] = system: Enterococcus faecalis—S613 HM-334; experiment: MIC, broth microdilution in TSB; type: cell-based; settings: TSB
Outline: (§1)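 Overnight 37° C agar cultures → 0.5 McFarland → ~5×10^5 CFU/mL in broth; compounds serially diluted; aerobic 37° C, 18-20 h; endpoint is lowest concentration without visible growth.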

[2] = system: Enterococcus faecium E417-HM-965; experiment: MIC, broth microdilution in TSB; type: cell-based; settings: TSB
Outline: as §1

[3] = system: Enterococcus faecium Patient #2-1-NR-31909; experiment: MIC, broth microdilution in TSB; type: cell-based; settings: TSB
Outline: as §1

[4] = system: Enterococcus faecium Patient #3-1 NR-31912; experiment: MIC, broth microdilution in TSB; type: cell-based; settings: TSB
Outline: as §1

[5] = system: Enterococcus fecalis Strain MMH594-NR31975; experiment: MIC, broth microdilution in TSB; type: cell-based; settings: TSB
Outline: as §1

[6] = system: Enterococcus fecalis Strain SF 24397 NR31970; experiment: MIC, broth microdilution in TSB; type: cell-based; settings: TSB
Outline: as §1

[7] = system: Enterococcus fecalis Strain SF 28073-NR31972; experiment: MIC, broth microdilution in TSB; type: cell-based; settings: TSB
Outline: as §1

[8] = system: Enterococcus fecalis Strain SF24413 NR31971; experiment: MIC, broth microdilution in TSB; type: cell-based; settings: TSB
Outline: as §1

[9] = system: MRSA NRS 384 (MRSA USA300); experiment: MIC against Staphylococci, broth microdilution; type: cell-based, Staphylococcus aureus; settings: TSB
Outline: (§2)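 CLSI broth microdilution in tryptone soy broth, inoculum about 5×10^5 CFU/mL from overnight agar cultures at 0.5 McFarland, with serially diluted compound. Plates were incubated aerobically at 37° C for 18-20 h. MIC was the lowest concentration with no visible growth.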

[10] = system: Staphylococcus epidermidis NRS 101; experiment: MIC against Staphylococci, broth microdilution; type: cell-based; settings: TSB
Outline: as §2

[11] = system: Bacteroides dorei—CL02T12C06 HM-719; experiment: MIC against human normal gut microbiota; type: cell-based; settings: BHIS broth, anaerobic, 48 hours
Outline: (§3)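 Broth microdilution: 0.5 McFarland suspensions in PBS diluted to ~5×10^5 CFU/ml, BHIS broth for Bacteroides/Bifidobacterium, MRS broth for Lactobacillus. Serial compound dilutions, 48 h, 37° C; anaerobic vs 5% CO2 respectively.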

[12] = system: Bacteroides fragilis—CL07T00C01 HIM-709; experiment: MIC against human normal gut microbiota; type: cell-based; settings: BHIS broth, anaerobic, 48 hours
Outline: as §3

[13] = system: Bifidobacterium breve—JCP7499 HIM 1120; experiment: MIC against human normal gut microbiota; type: cell-based; settings: BHIS broth, anaerobic, 48 hours
Outline: as §3

[14] = system: Bifidobacterium longum subsp. Longum—44B HM 845; experiment: MIC against human normal gut microbiota; type: cell-based; settings: BHIS broth, anaerobic, 48 hours
Outline: as §3

[15] = system: Lactobacillus casei ATCC 334; experiment: MIC against human normal gut microbiota; type: cell-based; settings: MRS broth, 5% CO2, 48 hours
Outline: as §3

[16] = system: Lactobacillus gasseri EX336960VC03 HIM-400; experiment: MIC against human normal gut microbiota; type: cell-based; settings: MRS broth, 5% CO2, 48 hours
Outline: as §3

[17] = system: Mutant-2 of Enterococcus fecalis NR 31975; experiment: microbe, parasite or virus in culture; type: cell-based; settings: Mutant-2
[18] = system: Mutant-3 of Enterococcus fecalis NR 31975; experiment: microbe, parasite or virus in culture; type: cell-based; settings: Mutant-3
[19] = system: Mutant-4 of Enterococcus fecalis NR 31975; experiment: microbe, parasite or virus in culture; type: cell-based; settings: Mutant-4
[20] = system: Mutant-5 of Enterococcus fecalis NR 31975; experiment: microbe, parasite or virus in culture; type: cell-based; settings: Mutant-5
[21] = system: Mutant-6 of Enterococcus fecalis NR 31975; experiment: microbe, parasite or virus in culture; type: cell-based; settings: Mutant-6
[22] = system: Mutant-7 of Enterococcus fecalis NR 31975; experiment: microbe, parasite or virus in culture; type: cell-based; settings: Mutant-7
[23] = system: Mutant-13 of Enterococcus fecalis NR 31975; experiment: microbe, parasite or virus in culture; type: cell-based; settings: Mutant-13
[24] = system: Mutant-14 of Enterococcus fecalis NR 31975; experiment: microbe, parasite or virus in culture; type: cell-based; settings: Mutant-14
[25] = system: Mutant-15 of Enterococcus fecalis NR 31975; experiment: microbe, parasite or virus in culture; type: cell-based; settings: Mutant-15

How did the MIC ([1]; Table 1) turn out when `NS(=O)(=O)c1nnc(NC(=O)CCC2CCCC2)s1` [CAI0015] was run?
Its MIC is 0.125 µg/mL (≈ 0.411 µM).

What about the “MIC in TSB” value ([1]; Table 7) of the same compound?
Its value is 0.06 µg/mL (≈ 0.197 µM).

What about the MIC ([2]; Table 1) of the same compound?
Its MIC is 0.25 µg/mL (≈ 0.821 µM).

What about the “MIC in TSB” value ([2]; Table 7) of the same compound?
The value was 0.06 µg/mL (≈ 0.197 µM).

And the MIC ([3]; Table 1)?
Its MIC is 0.125 µg/mL (≈ 0.411 µM).

What about the “MIC in TSB” value ([3]; Table 7) of the same compound?
The value was 0.06 µg/mL (≈ 0.197 µM).

What about the MIC ([4]; Table 1) of the same compound?
The MIC was 1 µg/mL (≈ 3.29 µM).

And the “MIC in TSB” value ([4]; Table 7)?
Its value is 0.125 µg/mL (≈ 0.411 µM).

And the MIC ([5]; Table 1)?
The MIC was 0.06 µg/mL (≈ 0.197 µM).

And the “MIC in TSB” value ([5]; Table 7)?
Its value is 0.06 µg/mL (≈ 0.197 µM).

What about the MIC ([6]; Table 1) of the same compound?
The MIC was 0.125 µg/mL (≈ 0.411 µM).

And the “MIC in TSB” value ([6]; Table 7)?
Its value is 0.06 µg/mL (≈ 0.197 µM).

What about the MIC ([7]; Table 1) of the same compound?
The MIC was 0.125 µg/mL (≈ 0.411 µM).

What about the “MIC in TSB” value ([7]; Table 7) of the same compound?
Its value is 0.06 µg/mL (≈ 0.197 µM).

And the MIC ([8]; Table 1)?
Its MIC is 0.06 µg/mL (≈ 0.197 µM).

And the “MIC in TSB” value ([8]; Table 7)?
Its value is 0.06 µg/mL (≈ 0.197 µM).

What about the MIC [9] of the same compound?
Its MIC is >64 µg/mL.

What about the MIC [10] of the same compound?
Its MIC is >64 µg/mL.

What about the MIC [11] of the same compound?
The MIC was >64 µg/mL.

And the MIC [12]?
The MIC was >64 µg/mL.

What about the MIC [13] of the same compound?
The MIC was >64 µg/mL.

What about the MIC [14] of the same compound?
Its MIC is >64 µg/mL.

And the MIC [15]?
Its MIC is >64 µg/mL.

What about the MIC [16] of the same compound?
Its MIC is >64 µg/mL.

What about the MIC [17] of the same compound?
The MIC was 2 µg/mL (≈ 6.57 µM).

And the MIC [18]?
Its MIC is 1 µg/mL (≈ 3.29 µM).

And the MIC [19]?
The MIC was 1 µg/mL (≈ 3.29 µM).

And the MIC [20]?
Its MIC is 1 µg/mL (≈ 3.29 µM).

What about the MIC [21] of the same compound?
The MIC was 1 µg/mL (≈ 3.29 µM).

And the MIC [22]?
Its MIC is 0.25 µg/mL (≈ 0.821 µM).

What about the MIC [23] of the same compound?
The MIC was 1 µg/mL (≈ 3.29 µM).

And the MIC [24]?
Its MIC is 1 µg/mL (≈ 3.29 µM).

What about the MIC [25] of the same compound?
The MIC was 1 µg/mL (≈ 3.29 µM).
